Assay results published in patent publication US10508085B2, “Compounds and methods for IDO and TDO modulation, and indications therefor” (Plexxikon Inc., priority 2016, dated 2019).

Tests used:
[1] = target: T1, Human Indoleamine 2,3-dioxygenase (IDO) (Homo sapiens, UniProt P14902); assay: Human IDO enzymatic assay (kynurenine level); format: biochemical; details: 6 nM IDO, 10 μM L-Trp; geometric mean; read-out: IDO1 GMean: IC50 (μM) (Biochemical Assay)
T1 construct: His tag (N); made in house; host or cells: E. coli
T1 sequence (P14902 whole entry): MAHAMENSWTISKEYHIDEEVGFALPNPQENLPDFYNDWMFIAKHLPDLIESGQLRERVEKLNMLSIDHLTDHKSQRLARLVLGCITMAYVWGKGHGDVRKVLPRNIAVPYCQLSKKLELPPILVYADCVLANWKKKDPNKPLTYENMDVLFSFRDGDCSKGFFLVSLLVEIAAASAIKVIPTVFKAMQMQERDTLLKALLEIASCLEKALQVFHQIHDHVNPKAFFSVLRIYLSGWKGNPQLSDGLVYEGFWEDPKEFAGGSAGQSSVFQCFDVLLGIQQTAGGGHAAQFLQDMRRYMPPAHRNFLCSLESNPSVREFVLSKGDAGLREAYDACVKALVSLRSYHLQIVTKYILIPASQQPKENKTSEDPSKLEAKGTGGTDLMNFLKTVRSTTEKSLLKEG
How it was run: (§1)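 N-terminally His-tagged enzymes expressed in E. coli were run in 50 mM sodium phosphate pH 6.5 with 10 mM ascorbate, catalase and Tween 20. IDO: 6 nM enzyme, 10 μM L-Trp, 5 μM methylene blue, 20 min RT. TDO: 1 nM enzyme, 350 μM L-Trp, 0.4 μM methylene blue, 70 min RT.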

[2] = target: T2, Human Tryptophan 2,3-dioxygenase (TDO) (Homo sapiens, UniProt P48775); assay: Human TDO enzymatic assay (kynurenine level); format: biochemical; details: 1 nM TDO, 350 μM L-Trp; geometric mean; read-out: TDO GMean: IC50 (μM) (Biochemical Assay)
T2 construct: His tag (N); made in house; host or cells: E. coli
T2 sequence (P48775 whole entry): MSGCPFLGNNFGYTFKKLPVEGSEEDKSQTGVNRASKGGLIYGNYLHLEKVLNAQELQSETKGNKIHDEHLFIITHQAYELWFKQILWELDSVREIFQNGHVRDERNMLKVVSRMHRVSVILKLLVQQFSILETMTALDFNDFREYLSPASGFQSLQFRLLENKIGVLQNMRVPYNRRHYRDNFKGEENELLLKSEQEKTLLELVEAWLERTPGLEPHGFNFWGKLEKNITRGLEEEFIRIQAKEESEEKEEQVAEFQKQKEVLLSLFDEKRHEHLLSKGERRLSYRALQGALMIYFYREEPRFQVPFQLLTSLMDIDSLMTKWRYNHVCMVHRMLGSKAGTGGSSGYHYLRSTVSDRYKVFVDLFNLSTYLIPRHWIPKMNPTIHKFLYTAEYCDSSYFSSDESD
How it was run: as §1

[3] = target: T3, human IDO (IDO1-expressing HEK293 cells) (Homo sapiens, UniProt P14902); assay: Cell based kynurenine assay, IDO1-expressing HEK293 cell clones; details: IDO1-expressing HEK293 cells, 24 hours, geometric mean; read-out: HEK293 IDO1 Kynurenine GMean IC50 (μM) (Cellular Assay)
T3 construct: expressed in transfected cells
T3 sequence (P14902 whole entry): as the sequence (P14902 whole entry) above
How it was run: (§2)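 Cellular IDO1 and TDO activity is followed as kynurenine released by stably transfected HEK293 clones over 24 h with test compound. Controls are DMSO-treated cells and media alone.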

[4] = target: T4, human TDO (TDO-expressing HEK293 cells) (Homo sapiens, UniProt P48775); assay: Cell based kynurenine assay, TDO-expressing HEK293 cell clones; details: TDO-expressing HEK293 cells, 24 hours, geometric mean; read-out: HEK293 TDO Kynurenine GMean IC50 (μM) (Cellular Assay)
T4 construct: expressed in transfected cells
T4 sequence (P48775 whole entry): as the sequence (P48775 whole entry) above
How it was run: as §2

Row | IC50 [1] [µM] | IC50 [2] [µM] | IC50 [3] [µM] | IC50 [4] [µM] | SMILES
1 | 0.0001 to 10 | 0.0001 to 10 | 0.0001 to 10 | 0.0001 to 10 | CC(C)(C1CCN(C(=O)c2ccc(N3CCOCC3)nc2)CC1)[C@H](O)c1cc(Cl)cc2cn[nH]c12 [Compound P-0538, (S)-(4-(1-(5-chloro-1H-indazol-7-yl)-1-hydroxy-2-methylpropan-2-yl)piperidin-1-yl)(6-morpholinopyridin-3-yl)methanone]
2 | 0.0001 to 10 | 0.0001 to 10 | 0.0001 to 10 | 0.0001 to 10 | CC(C)(C1CCN(C(=O)C2C(C)(C)C2(C)C)CC1)[C@H](O)c1cc(Cl)cc2cn[nH]c12 [Compound P-0539, (S)-(4-(1-(5-chloro-1H-indazol-7-yl)-1-hydroxy-2-methylpropan-2-yl)piperidin-1-yl)(2,2,3,3-tetramethylcyclopropyl) methanone]
3 | 0.0001 to 10 | 0.0001 to 10 | 0.0001 to 10 | 0.0001 to 10 | COC(=O)N1CCC(C(C)(C)[C@H](O)c2cc(Cl)cc3cn[nH]c23)CC1 [Compound P-0540, methyl (S)-4-(1-(5-chloro-1H-indazol-7-yl)-1-hydroxy-2-methylpropan-2-yl)piperidine-1-carboxylate]
4 | 0.0001 to 10 | 0.0001 to 10 | 0.0001 to 10 | 0.0001 to 10 | CCOC(=O)N1CCC(C(C)(C)[C@H](O)c2cc(Cl)cc3cn[nH]c23)CC1 [Compound P-0541, ethyl (S)-4-(1-(5-chloro-1H-indazol-7-yl)-1-hydroxy-2-methylpropan-2-yl)piperidine-1-carboxylate]
5 | 0.0001 to 10 | 0.0001 to 10 | 0.0001 to 10 | 0.0001 to 10 | CC(=O)N1CCC(C(C)(C)[C@H](O)c2cc(Cl)cc3cn[nH]c23)CC1 [Compound P-0542, (S)-1-(4-(1-(5-chloro-1H-indazol-7-yl)-1-hydroxy-2-methylpropan-2-yl)piperidin-1-yl)ethan-1-one]
6 | 0.0001 to 10 | 0.0001 to 10 | 0.0001 to 10 | 0.0001 to 10 | CCCC(=O)N1CCC(C(C)(C)[C@H](O)c2cc(Cl)cc3cn[nH]c23)CC1 [Compound P-0543, (S)-1-(4-(1-(5-chloro-1H-indazol-7-yl)-1-hydroxy-2-methylpropan-2-yl)piperidin-1-yl)butan-1-one]
7 | 0.0001 to 10 | 0.0001 to 10 | 0.0001 to 10 | 0.0001 to 10 | CC(C)C(=O)N1CCC(C(C)(C)[C@H](O)c2cc(Cl)cc3cn[nH]c23)CC1 [Compound P-0544, (S)-1-(4-(1-(5-chloro-1H-indazol-7-yl)-1-hydroxy-2-methylpropan-2-yl)piperidin-1-yl)-2-methylpropan-1-one]
8 | 0.0001 to 10 | 0.0001 to 10 | 0.0001 to 10 | 0.0001 to 10 | CC(C)CC(=O)N1CCC(C(C)(C)[C@H](O)c2cc(Cl)cc3cn[nH]c23)CC1 [Compound P-0545, (S)-1-(4-(1-(5-chloro-1H-indazol-7-yl)-1-hydroxy-2-methylpropan-2-yl)piperidin-1-y1)-3-methylbutan-1-one]

More lines, now with the values behind:

Row | SMILES | IC50 [1] [µM] | IC50 [2] [µM] | IC50 [3] [µM] | IC50 [4] [µM]
9 | O=C(Cc1ccc(Cl)c(F)c1)N1CCC(C(F)(F)C(O)c2cc(Cl)cc3cn[nH]c23)CC1 (centres unmarked) [Compound P-0523, 1-(4-(2-(5-chloro-1H-indazol-7-yl)-1,1-difluoro-2-hydroxyethyl)piperidin-1-yl)-2-(4-chloro-3-fluorophenyl)ethan-1-one] | 0.0001 to 10 | 0.0001 to 10 | 0.0001 to 10 | 0.0001 to 10
10 | O=C(Cc1ccc(F)c(Cl)c1)N1CCC(C(F)(F)C(O)c2cc(Cl)cc3cn[nH]c23)CC1 (centres unmarked) [Compound P-0524, 1-(4-(2-(5-chloro-1H-indazol-7-yl)-1,1-difluoro-2-hydroxyethyl)piperidin-1-yl)-2-(3-chloro-4-fluorophenyl) ethan-1-one] | 0.0001 to 10 | 0.0001 to 10 | 0.0001 to 10 | 0.0001 to 10
11 | O=C(Cc1ccnc(Cl)c1)N1CCC(C(F)(F)C(O)c2cc(Cl)cc3cn[nH]c23)CC1 (centres unmarked) [Compound P-0525, 1-(4-(2-(5-chloro-1H-indazol-7-yl)-1,1-difluoro-2-hydroxyethyl)piperidin-1-yl)-2-(2-chloropyridin-4-yl)ethan-1-one] | 0.0001 to 10 | 0.0001 to 10 | 0.0001 to 10 | 0.0001 to 10
12 | COc1cc(CC(=O)N2CCC(C(F)(F)C(O)c3cc(Cl)cc4cn[nH]c34)CC2)ccn1 (centres unmarked) [Compound P-0526, 1-(4-(2-(5-chloro-1H-indazol-7-yl)-1,1-difluoro-2-hydroxyethyl)piperidin-1-yl)-2-(2-methoxypyridin-4-yl)ethan-1-one] | 0.0001 to 10 | 0.0001 to 10 | 0.0001 to 10 | 0.0001 to 10
13 | CC(C)(C)OC(=O)N1CCC(C(F)(F)[C@H](O)c2c3c(cc4cn[nH]c24)CC3)CC1 [Compound P-0527, tert-butyl (R)-4-(2-(5,6-dihydro-1H-cyclobuta[f]indazol-7-yl)-1,1-difluoro-2-hydroxyethyl) piperidine-1-carboxylate] | 0.0001 to 10 | 10 to 100 | 0.0001 to 10 | 0.0001 to 10
14 | CC(C)(C)OC(=O)N1CCC(C(F)(F)[C@@H](O)c2c3c(cc4cn[nH]c24)CC3)CC1 [Compound P-0528, tert-butyl (S)-4-(2-(5,6-dihydro-1H-cyclobuta[f]indazol-7-yl)-1,1-difluoro-2-hydroxyethyl) piperidine-1-carboxylate] | 0.0001 to 10 | > 200 | 0.0001 to 10 | 0.0001 to 10
15 | CC(C)(C1CCN(C(=O)C2CC2)CC1)[C@H](O)c1cc(Cl)cc2cn[nH]c12 [Compound P-0529, (S)-(4-(1-(5-chloro-1H-indazol-7-yl)-1-hydroxy-2-methylpropan-2-yl)piperidin-1-yl)(cyclopropyl) methanone] | 0.0001 to 10 | 0.0001 to 10 | 0.0001 to 10 | 0.0001 to 10
16 | CC(C)(C1CCN(C(=O)CC2CC2)CC1)[C@H](O)c1cc(Cl)cc2cn[nH]c12 [Compound P-0530, (S)-1-(4-(1-(5-chloro-1H-indazol-7-yl)-1-hydroxy-2-methylpropan-2-yl)piperidin-1-yl)-2-cyclopropylethan-1-one] | 0.0001 to 10 | 0.0001 to 10 | 0.0001 to 10 | 0.0001 to 10
17 | CC(C)(C1CCN(C(=O)CC(F)(F)F)CC1)[C@H](O)c1cc(Cl)cc2cn[nH]c12 [Compound P-0531, (S)-1-(4-(1-(5-chloro-1H-indazol-7-yl)-1-hydroxy-2-methylpropan-2-yl)piperidin-1-yl)-3,3,3-trifluoropropan-1-one] | 0.0001 to 10 | 0.0001 to 10 | 0.0001 to 10 | 0.0001 to 10
18 | CC(C)(C1CCN(C(=O)CC2CCOCC2)CC1)[C@H](O)c1cc(Cl)cc2cn[nH]c12 [Compound P-0532, (S)-1-(4-(1-(5-chloro-1H-indazol-7-yl)-1-hydroxy-2-methylpropan-2-yl)piperidin-1-yl)-2-(tetrahydro-2H-pyran-4-yl)ethan-1-one] | 0.0001 to 10 | 0.0001 to 10 | 0.0001 to 10 | 0.0001 to 10
19 | COCC(=O)N1CCC(C(C)(C)[C@H](O)c2cc(Cl)cc3cn[nH]c23)CC1 [Compound P-0533, (S)-1-(4-(1-(5-chloro-1H-indazol-7-yl)-1-hydroxy-2-methylpropan-2-yl)piperidin-1-yl)-2-methoxyethan-1-one] | 0.0001 to 10 | 0.0001 to 10 | 0.0001 to 10 | 0.0001 to 10
20 | CC(C)(C1CCN(C(=O)CC#N)CC1)[C@H](O)c1cc(Cl)cc2cn[nH]c12 [Compound P-0534, (S)-3-(4-(1-(5-chloro-1H-indazol-7-yl)-1-hydroxy-2-methylpropan-2-yl)piperidin-1-yl)-3-oxopropanenitrile] | 0.0001 to 10 | 0.0001 to 10 | 0.0001 to 10 | 0.0001 to 10
21 | CC(C)(C1CCN(C(=O)CO)CC1)[C@H](O)c1cc(Cl)cc2cn[nH]c12 [Compound P-0535, (S)-1-(4-(1-(5-chloro-1H-indazol-7-yl)-1-hydroxy-2-methylpropan-2-yl)piperidin-1-yl)-2-hydroxyethan-1-one] | 0.0001 to 10 | 0.0001 to 10 | 0.0001 to 10 | 0.0001 to 10
22 | CC(C)(C1CCN(C(=O)c2cccnc2)CC1)[C@H](O)c1cc(Cl)cc2cn[nH]c12 [Compound P-0536, (S)-(4-(1-(5-chloro-1H-indazol-7-yl)-1-hydroxy-2-methylpropan-2-yl)piperidin-1-yl)(pyridin-3-yl)methanone] | 0.0001 to 10 | 0.0001 to 10 | 0.0001 to 10 | 0.0001 to 10
23 | CC(C)(C1CCN(C(=O)c2ccc(C(F)(F)F)nc2)CC1)[C@H](O)c1cc(Cl)cc2cn[nH]c12 [Compound P-0537, (S)-(4-(1-(5-chloro-1H-indazol-7-yl)-1-hydroxy-2-methylpropan-2-yl)piperidin-1-yl)(6-(trifluoromethyl)pyridin-3-yl)methanone] | 0.0001 to 10 | 0.0001 to 10 | 0.0001 to 10 | 0.0001 to 10
